A short description of data set [1]: Plasma stability analysis, mouse plasma. Particulars: plasma, BTCs. As to the method: Pooled frozen plasma was thawed in a water bath at 37° C. Plasma was centrifuged at 4000 rpm for 5 min and the clots were removed if any. The pH will be adjusted to 7.4±0.1 if required. 1 mM stock solution was prepared with DMSO. Propantheline (positive control) was prepared by making a 100 μM working solution by diluting 5 μL of the stock solution (10 mM) with 495 μL ultra pure water. 100 μM working solutions of test compounds were made up by diluting 10 μL of the stock solution (1 mM) with 90 μL DMSO. 98 μL of blank plasma was spiked with 2 μL of dosing solution (100 μM) to achieve 2 μM of the final concentration in duplicate and samples were incubated at 37° C. in a water bath. […] An aliquot of supernatant (150 μL) was transferred from each well before submitting for LC-MS/MS analysis.
The % remaining test compound after incubation in plasma was calculated using following equation: Remaining=100×(PAR at appointed incubation time/PAR at T0 time)
where PAR is the peak area ratio of analyte versus internal standard (IS).
The half-life (T½) was calculated from a log linear plot of concentration versus time.

A further data set deals with Cathepsin B (Homo sapiens, UniProt P07858). Briefly: Cathepsin B (CatB) cleavage assay. It counts as biochemical. Particulars: BTCs; for half-life at 40 μM: read-out: CatB t1/2 (converted). As to the method: 15 μL of test compound solution (2 mM in DMSO) was added to the incubation plate in duplicate. 30 μL of Cathepsin B stock solution (16 μM) was pre-activated with 1500 μL activation buffer for 10 min at room temperature. The Cathepsin B solution was diluted in 13.17 mL water, then 735 μL activatived enzyme mixture was added to the incubation plate. The mixture was incubated at 37° C. in a waterbath. […] The samples were mixed and centrifuged at 4000 rpm for 20 min. 50 μL of supernatant was taken into a new plate containing 150 μL ultra-pure water and the samples mixed thoroughly before submitting to LC-MS/MS analysis.

A short description of another data set: in vivo. To be noted: male, CD-1, mouse, plasma, intravenous.
A short description of data set [2]: in vitro. To be noted: rat, plasma, pH 7.4.
Method: (§1) Pooled frozen plasma was thawed in a water bath at 37° C. Plasma was centrifuged at 4000 rpm for 5 min and the clots were removed if any. The pH will be adjusted to 7.4±0.1 if required. 1 mM stock solution was prepared with DMSO. Propantheline (positive control) was prepared by making a 100 μM working solution by diluting 5 μL of the stock solution (10 mM) with 495 μL ultra pure water. 100 μM working solutions of test compounds were made up by diluting 10 μL of the stock solution (1 mM) with 90 μL DMSO. 98 μL of blank plasma was spiked with 2 μL of dosing solution (100 μM) to achieve 2 μM of the final concentration in duplicate and samples were incubated at 37° C. in a water bath. At each time point (0, 1, 2, 4, 6 and 24 hr), 400 μL of 200 ng/mL tolbutamide and labetalol in 100% MeOH was added and mixed thoroughly to precipitate proteins. Sample plates were centrifuged at 4,000 rpm for 15 min. An aliquot of supernatant (150 μL) was transferred from each well before submitting for LC-MS/MS analysis.
(§2) The appointed incubation time points are T0 (0 hr), Tn (n=0, 1, 2, 4, 6, 24 hr). The half-life (T½) was calculated from a log linear plot of concentration versus time.
(§3) When the % remaining value at the maximal incubation time, which was 24 hr in this study, was higher than 75%, it is considered to be within the acceptable experimental variation.
Data set [3] is described as follows: in vitro. To be noted: human, plasma, pH 7.4.
Method: as §1, §2, §3
Data set [4] can be described thus: in vitro. Particulars: mouse, plasma.
Data set [5] can be described thus: in vitro. Particulars: rat, plasma, Plasma protein binding (% Unbound) Rat.
Setting [6] is: pH 7.4, Mouse plasma t1/2 (EDTA), EDTA anticoagulant.

The structures appear in SMILES notation. Bounds are passed on as bounds.

Method for in vivo: Male CD-1 mice were dosed with each Bicycle Conjugate formulated in 25 mM histidine HCl, 10% sucrose pH 7 via tail vein injection. Serial bleeding (about 80 μL blood/time point) was performed via submadibular or saphenous vein at each time point. All blood samples were immediately transferred into prechilled microcentrifuge tubes containing 2 μL K2-EDTA (0.5M) as anti-coagulant and placed on wet ice. Blood samples were immediately processed for plasma by centrifugation at approximately 4° C., 3000 g. The precipitant including internal standard (350 μL) was immediately added into the 35 μL plasma sample, mixed well and centrifuged at 3220 g, 4° C. for 15 minutes. The supernatant was transferred into pre-labeled polypropylene microcentrifuge tubes, and then quick-frozen over dry ice. The samples were stored at 70° C. or below as needed until analysis. Supernatant samples were mixed with 50 μL water, vortexed well and centrifuged at 3220 g, 4° C. for 15 minutes. A sample of the supernatant was injected for LC-MS/MS analysis using an Acquity UPLC with AB Sciex 6500+ Triple Quad MS in positive ion mode to determine the concentrations of Bicycle Conjugate and released payload. Plasma concentration versus time data were analyzed by non-compartmental approaches using the Phoenix WinNonlin 6.3 software program. C0, Cl, Vdss, T1/2, AUC(0-inf), MRT(0-last), MRT(0-inf) nd graphs of plasma concentration versus time profile were reported.

One may read the Vd as a proportionality between amount in the body and measured concentration, not a real space. For orientation: clearance means the volume of plasma or blood freed of the substance per unit of time. Low readings indicate inefficient removal, high ones efficient removal. What is called fraction unbound is the share of the substance not bound to proteins or other matrix. Turning to `CC[C@H](C)[C@@H]([C@@H](CC(=O)N1CCC[C@H]1[C@H](OC)[C@@H](C)C(=O)N[C@H](C)[C@@H](O)c1ccccc1)OC)N(C)C(=O)[C@@H](NC(=O)[C@H](C(C)C)N(C)C(=O)OCc1ccc(NC(=O)[C@H](CCCNC(N)=O)NC(=O)[C@@H](NC(=O)[C@H](CCC(=O)O)NC(=O)Cn2cc(CCC(=O)NCCC(=O)N(C)CC(=O)N(C)CC(=O)N(C)CC(=O)N(C)CC(=O)N(C)CC(=O)N(C)CC(=O)N(C)CC(=O)N(C)CC(=O)N(C)CC(=O)N(C)CC(=O)N[C@@H](C)C(=O)N[C@H]3CN(C)Cc4cc5cc(c4)CN(C)C[C@@H](C(N)=O)NC(=O)[C@H](C(C)(C)C)NC(=O)[C@H](CC(=O)O)NC(=O)[C@H](Cc4ccc(O)cc4)NC(=O)[C@H](Cc4ccccc4)NC(=O)[C@H](CC(=O)O)NC(=O)[C@H](CCC(=O)O)NC(=O)[C@H](CSC5)NC(=O)[C@@H](C)NC(=O)[C@H](Cc4cccc5ccccc45)NC(=O)[C@H](CCC(=O)O)NC(=O)[C@H](CC(N)=O)NC(=O)[C@@H](C)NC3=O)nn2)C(C)C)cc1)C(C)C` [BCY10980, MMAE-PAB-(Cit-Val-Glu)-BCY3900], the half-life at 2 μM in data set [1] (setting [6]) is more than 57.8 h. In data set [1] (pH 7.4, Mouse plasma t1/2 (Herparin), heparin anticoagulant), this compound yielded a half-life at 2 μM of more than 57.8 h. Besides, at Cathepsin B, the “% Parent remaining after incubation with CatB, 0 h” value (“% Parent remaining … 0 h” for short) was found to be 100%; the “% Parent remaining after incubation with CatB, 1 h” value (from here on “% Parent remaining … 1 h”) stood at 0%; the “% Parent remaining after incubation with CatB, 2 h” value (from here on “% Parent remaining … 2 h”) came out at 0%; the “% Parent remaining after incubation with CatB, 4 h” value (from here on “% Parent remaining … with CatB, 4 h”) was found to be 0%. On Cathepsin B, the “% Parent remaining after incubation with CatB, 6 h” value (from here on “% Parent remaining … 6 h”) was determined as 0%; the “% Parent remaining after incubation with CatB, 24 h” value (from here on “% Parent remaining … 24 h”) is listed as 0%; the half-life at 40 μM is less than 0.2 h. In the data set “in vivo”, the C0 worked out at 40200 ng/mL, the Vd came out at 0.2 L/kg, the clearance was 4.8 mL/min/kg and the half-life is 0.64 h. For the same compound, the half-life at 2 μM in the data set “in vitro [2]” is more than 57.8 h. For the same compound, the half-life at 2 μM in “in vitro [3]” was 40 h. Besides, the fraction unbound in the data set “in vitro [4]” amounted to 0.187.
In data set [1] (setting [6]), `CC[C@H](C)[C@@H]([C@@H](CC(=O)N1CCC[C@H]1[C@H](OC)[C@@H](C)C(=O)N[C@H](C)[C@@H](O)c1ccccc1)OC)N(C)C(=O)[C@@H](NC(=O)[C@H](C(C)C)N(C)C(=O)OCc1ccc(NC(=O)[C@H](CCN)NC(=O)[C@H](Cc2ccc3ccccc3c2)NC(=O)[C@H](CCC(=O)O)NC(=O)Cn2cc(CCC(=O)NCCC(=O)N(C)CC(=O)N(C)CC(=O)N(C)CC(=O)N(C)CC(=O)N(C)CC(=O)N(C)CC(=O)N(C)CC(=O)N(C)CC(=O)N(C)CC(=O)N(C)CC(=O)N[C@@H](C)C(=O)N[C@H]3CN(C)Cc4cc5cc(c4)CN(C)C[C@@H](C(N)=O)NC(=O)[C@H](C(C)(C)C)NC(=O)[C@H](CC(=O)O)NC(=O)[C@H](Cc4ccc(O)cc4)NC(=O)[C@H](Cc4ccccc4)NC(=O)[C@H](CC(=O)O)NC(=O)[C@H](CCC(=O)O)NC(=O)[C@H](CSC5)NC(=O)[C@@H](C)NC(=O)[C@H](Cc4cccc5ccccc45)NC(=O)[C@H](CCC(=O)O)NC(=O)[C@H](CC(N)=O)NC(=O)[C@@H](C)NC3=O)nn2)cc1)C(C)C` [BCY10986, MMAE-PAB-(Dab-2Nal-Glu)-BCY3900] had a half-life at 2 μM of 50.1 h. Also, at Cathepsin B, the “% Parent remaining … 0 h” value is given as 100%; the “% Parent remaining … 1 h” value is recorded as 9.7346%; the “% Parent remaining … 2 h” value was found to be 0%; the “% Parent remaining … with CatB, 4 h” value is 0%. For the same compound, on Cathepsin B, the “% Parent remaining … 6 h” value was 0%; the “% Parent remaining … 24 h” value is 0%; the half-life at 40 μM is 0.3 h. The same compound had a fraction unbound in “in vitro [4]” of 0.071. Moreover, the fraction unbound in the data set “in vitro [5]” was found to be 0.115.
`CC[C@H](C)[C@@H]([C@@H](CC(=O)N1CCC[C@H]1[C@H](OC)[C@@H](C)C(=O)N[C@H](C)[C@@H](O)c1ccccc1)OC)N(C)C(=O)[C@@H](NC(=O)[C@H](C(C)C)N(C)C(=O)OCc1ccc(NC(=O)[C@H](CCN)NC(=O)C2(NC(=O)[C@H](CCC(=O)O)NC(=O)Cn3cc(CCC(=O)NCCC(=O)N(C)CC(=O)N(C)CC(=O)N(C)CC(=O)N(C)CC(=O)N(C)CC(=O)N(C)CC(=O)N(C)CC(=O)N(C)CC(=O)N(C)CC(=O)N(C)CC(=O)N[C@@H](C)C(=O)N[C@H]4CN(C)Cc5cc6cc(c5)CN(C)C[C@@H](C(N)=O)NC(=O)[C@H](C(C)(C)C)NC(=O)[C@H](CC(=O)O)NC(=O)[C@H](Cc5ccc(O)cc5)NC(=O)[C@H](Cc5ccccc5)NC(=O)[C@H](CC(=O)O)NC(=O)[C@H](CCC(=O)O)NC(=O)[C@H](CSC6)NC(=O)[C@@H](C)NC(=O)[C@H](Cc5cccc6ccccc56)NC(=O)[C@H](CCC(=O)O)NC(=O)[C@H](CC(N)=O)NC(=O)[C@@H](C)NC4=O)nn3)CCC2)cc1)C(C)C` [BCY10988, MMAE-PAB-(Dab-cBu-Glu)-BCY3900] displayed a half-life at 2 μM in data set [1] (setting [6]) of more than 57.8 h. Further, on Cathepsin B, the “% Parent remaining … 0 h” value was 100%; the “% Parent remaining … 1 h” value amounted to 109.88%; the “% Parent remaining … 2 h” value is on record as 119%; the “% Parent remaining … with CatB, 4 h” value turned out to be 110%. Further, at Cathepsin B, the “% Parent remaining … 6 h” value came out at 105%; the “% Parent remaining … 24 h” value is listed as 111%; the half-life at 40 μM is more than 57.8 h.
`CC[C@H](C)[C@@H]([C@@H](CC(=O)N1CCC[C@H]1[C@H](OC)[C@@H](C)C(=O)N[C@H](C)[C@@H](O)c1ccccc1)OC)N(C)C(=O)[C@@H](NC(=O)[C@H](C(C)C)N(C)C(=O)OCc1ccc(NC(=O)[C@H](CCN)NC(=O)[C@@H](NC(=O)Cn2cc(CCC(=O)NCCC(=O)N(C)CC(=O)N(C)CC(=O)N(C)CC(=O)N(C)CC(=O)N(C)CC(=O)N(C)CC(=O)N(C)CC(=O)N(C)CC(=O)N(C)CC(=O)N(C)CC(=O)N[C@@H](C)C(=O)N[C@H]3CN(C)Cc4cc5cc(c4)CN(C)C[C@@H](C(N)=O)NC(=O)[C@H](C(C)(C)C)NC(=O)[C@H](CC(=O)O)NC(=O)[C@H](Cc4ccc(O)cc4)NC(=O)[C@H](Cc4ccccc4)NC(=O)[C@H](CC(=O)O)NC(=O)[C@H](CCC(=O)O)NC(=O)[C@H](CSC5)NC(=O)[C@@H](C)NC(=O)[C@H](Cc4cccc5ccccc45)NC(=O)[C@H](CCC(=O)O)NC(=O)[C@H](CC(N)=O)NC(=O)[C@@H](C)NC3=O)nn2)C(C)C)cc1)C(C)C` [BCY10989, MMAE-PAB-(Dab-Val)-BCY3900] showed a half-life at 2 μM in data set [1] (pH 7.4, Mouse plasma t1/2 expt 2 (EDTA), EDTA anticoagulant, experiment 2) of 30.8 h. Moreover, at Cathepsin B, the “% Parent remaining … 0 h” value is on record as 100%; the “% Parent remaining … 1 h” value came out at 89.4%; the “% Parent remaining … 2 h” value was found to be 60.7%; the “% Parent remaining … with CatB, 4 h” value is reported as 40.4%. Moreover, on Cathepsin B, the “% Parent remaining … 6 h” value is 23.2%; the “% Parent remaining … 24 h” value worked out at 12.8%; the half-life at 40 μM was 2.8 h.

For the origin of these results see patent US12540161B2, “Linkers” (BicycleTx Limited, priority 2020, dated 2026).
